Test: pH-dependent stability of romidepsin in solution during production, purification and storage
Assay type: physicochemical
From the text: Based on this recognition, the present invention provides a system for reproducibly preparing romidepsin under conditions that reduce the levels of these contaminating side products. […] This improvement in the purification process of romidepsin allows for higher yields of romidepsin and/or higher purity romidepsin than that provided by known processes. Such an improvement is particularly useful for preparing pharmaceutical grade romidepsin for use in humans.
Romidepsin is a cyclic depsipeptide having a disulfide bond. […] Such adducts are typically insoluble and difficult to remove from purified romidepsin. In certain embodiments, such contaminating adducts prevent a preparation of romidepsin from meeting the desired specifications (e.g., solubility, degree of purity, optical rotation, etc.). In pharmaceutical compositions, these adducts decrease the purity of the active agent, romidepsin. Since romidepsin is being used as a pharmaceutical agent in humans, it is important that pure, stable, monomeric romidepsin be reproducibly obtained from a fermentation of Chromobacterium violaceum. The present invention stems from the recognition that alkaline conditions cause the formation of these undesired romidepsin adducts and provides a novel solution to this problem.

## C/C=C1\NC(=O)[C@H]2CSSCC/C=C/[C@H](CC(=O)N[C@H](C(C)C)C(=O)N2)OC(=O)[C@H](C(C)C)NC1=O [Romidepsin, (1S,4S,10S,16E,21R)-7-[(2Z)-ethylidene]-4,21-diisopropyl-2-oxa-12,13-dithia-5,8,20,23-tetraazabicyclo[8.7.6]tricos-16-ene-3,6,9,19,22-pentanone]
Basic conditions, e.g. greater than an apparent pH of ~7
  reduction of the disulfide bond: facilitates the reduction of this disulfide bond
producing, purifying and/or storing at an apparent pH less than approximately 6.5, more preferably less than approximately 6.0
  formation of dimerized, oligomerized, or polymerized romidepsin: prevent the formation of dimerized, oligomerized, or polymerized romidepsin
